Molecules are shown by their SMILES. pEC50: −log10 of the molar value.

The target of the first assay is GLP-1 Receptor (Homo sapiens, UniProt P43220). Briefly: GLP-1R agonist cAMP stimulation assay (HEK293/GLP1R/CRE-LUC cells, cAMP dynamic 2 kit). In kind it is cell-based. Particulars: HEK293/CRE-Luc cell line stably expressing the GLP-1 Receptor; 30 min incubation at 37° C.; read-out: GLP1R cAMP Stimulation DR: EC50. On the procedure: Activation of GLP-1 receptor is known to stimulate cyclic AMP (cAMP) production in cells which indicates primary coupling to the Gas subunit of the G protein heterotrimeric complex.
Chain of GLP-1 Receptor (P43220 24-463, species assumed): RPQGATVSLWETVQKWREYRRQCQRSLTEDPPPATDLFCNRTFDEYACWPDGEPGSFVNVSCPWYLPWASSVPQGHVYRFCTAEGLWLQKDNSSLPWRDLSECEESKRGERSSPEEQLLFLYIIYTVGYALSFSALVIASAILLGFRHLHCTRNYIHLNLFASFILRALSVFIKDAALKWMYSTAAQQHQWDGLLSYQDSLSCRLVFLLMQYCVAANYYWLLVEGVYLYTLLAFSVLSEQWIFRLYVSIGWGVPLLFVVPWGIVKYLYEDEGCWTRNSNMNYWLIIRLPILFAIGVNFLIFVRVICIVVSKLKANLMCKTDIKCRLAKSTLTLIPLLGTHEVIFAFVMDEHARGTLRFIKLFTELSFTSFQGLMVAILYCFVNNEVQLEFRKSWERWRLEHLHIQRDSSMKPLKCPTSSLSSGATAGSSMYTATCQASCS
To optimize functional activity directed toward Gas coupling, a HEK293/CRE-Luc cell line developed by HDB stably expressing the GLP-1 Receptor was used. […] Seal the plate and incubate at 37° C. with 5% CO2 for 30 min.
After incubation the cAMP assay signal was generated using cAMP dynamic 2 Kit (Cisbio). 5 μL cAMP-d2 working solution was added to each well, followed with 5 μL Anti-cAMP antibody-cryptate working solution added to each well using ThermoFisher Multidrop Combi. Incubate at room temperature for 1 hour protected from light.
% Activity=[…]×(mean RLU of test sample−mean RLU of vehicle control)/(mean RLU of MAX control−mean RLU of vehicle control))
On to `O=C(O)c1ccc2nc(CN3CCC(Oc4ccnc(Cc5ccc(Cl)cc5)n4)CC3)n(Cc3cn[nH]c3)c2n1` [Compound 193, 3-((1H-pyrazol-4-yl)methyl)-2-((4-((2-(4-chlorobenzyl)pyrimidin-4-yl)oxy)piperidin-1-yl)methyl)-3H-imidazo[4,5-b]pyridine-5-carboxylic acid], for which the pEC50 – broadly, the negative decadic logarithm of the EC50, by convention in mol/L – is 9.72. With `O=C(O)c1ccc2nc(CN3CCC(Oc4cccc(Cc5ccc(Cl)cc5)c4F)CC3)n(C[C@@H]3CCO3)c2n1` [Compound 157a, 2-[(4-{3-[(4-chlorophenyl)methyl]-2-fluorophenoxy}piperidin-1-yl)methyl]-3-{[(2S)-oxetan-2-yl]methyl}-3H-imidazo[4,5-b]pyridine-5-carboxylic acid], the pEC50 is 7.38. The same measure, in the same setting: next, `O=C(O)c1ccc2nc(CN3CCC(Oc4ccc(F)c(Cc5ccc(Cl)cc5F)n4)CC3)n(C[C@@H]3CCO3)c2n1` [Compound 150a, (S)-2-((4-((6-(4-chloro-2-fluorobenzyl)-5-fluoropyridin-2-yl)oxy)piperidin-1-yl)methyl)-3-(oxetan-2-ylmethyl)-3H-imidazo[4,5-b]pyridine-5-carboxylic acid]: 7.17; `O=C(O)c1ccc2nc(CN3CCC(Oc4ccnc(Cc5ccc(C(F)(F)F)cc5F)n4)CC3)n(C[C@@H]3CCO3)c2n1` [Compound 163a, 2-({4-[(2-{[2-fluoro-4-(trifluoromethyl)phenyl]methyl}pyrimidin-4-yl)oxy]piperidin-1-yl}methyl)-3-{[(2S)-oxetan-2-yl]methyl}-3H-imidazo[4,5-b]pyridine-5-carboxylic acid]: 9.96. Same read-out and setting: the value for `O=C(O)c1ccc2nc(Cc3ccc(Oc4nc(Cc5ccc(Cl)cc5)ncc4F)cc3F)n(C[C@@H]3CCO3)c2n1` [Compound 190a, 2-{[4-({2-[(4-chlorophenyl)methyl]-5-fluoropyrimidin-4-yl}oxy)-2-fluorophenyl]methyl}-3-{[(2S)-oxetan-2-yl]methyl}-3H-imidazo[4,5-b]pyridine-5-carboxylic acid] was 9.39; that for `O=C(O)c1ccc2nc(C[C@H]3CC[C@@H](Oc4ccnc(Cc5ccc(Cl)cc5F)n4)CC3)n(C[C@@H]3CCO3)c2n1` [Compound 175a, 3-{[(2S)-oxetan-2-yl]methyl}-2-{[cis-4-({2-[(4-chloro-2-fluorophenyl)methyl]pyrimidin-4-yl}oxy)cyclohexyl]methyl}-3H-imidazo[4,5-b]pyridine-5-carboxylic acid] was 6.64. Same read-out and setting: the value for `O=C(O)c1ccc2nc(CN3CCC(Oc4cccc(Cc5ccc(C(F)(F)F)cc5)n4)CC3)n(C[C@@H]3CCO3)c2n1` [Compound 145a, 3-{[(2S)-oxetan-2-yl]methyl}-2-({4-[(6-{[4-(trifluoromethyl)phenyl]methyl}pyridin-2-yl)oxy]piperidin-1-yl}methyl)-3H-imidazo[4,5-b]pyridine-5-carboxylic acid] was 8.47.

Consider `O=C(O)c1ccc2nc(Cc3ccc(Oc4nc(Cc5ccc(Cl)cc5)ncc4F)cc3)n(C[C@@H]3CCO3)c2n1` [Compound 189a, 2-{[4-({2-[(4-chlorophenyl)methyl]-5-fluoropyrimidin-4-yl}oxy)phenyl]methyl}-3-{[(2S)-oxetan-2-yl]methyl}-3H-imidazo[4,5-b]pyridine-5-carboxylic acid], for which the negative-log EC50 (pEC50) was 9.16. The same measure, in the same setting: the value for `O=C(O)c1ccc2nc(CN3CCC(Oc4cccc(Cn5ccc(Cl)cc5=O)n4)CC3)n(C[C@@H]3CCO3)c2n1` [Compound 149a, 2-{[4-({6-[(4-chloro-2-oxo-1,2-dihydropyridin-1-yl)methyl]pyridin-2-yl}oxy)piperidin-1-yl]methyl}-3-{[(2S)-oxetan-2-yl]methyl}-3H-imidazo[4,5-b]pyridine-5-carboxylic acid] was 8.25; that for `CC(=O)Nc1ccc2nc(CN3CCC(Oc4cccc(Cc5ccc(Cl)cc5F)n4)CC3)n(C[C@@H]3CCO3)c2c1` [Compound 134a, N-(2-{[4-({6-[(4-chloro-2-fluorophenyl)methyl]pyridin-2-yl}oxy)piperidin-1-yl]methyl}-1-{[(2S)-oxetan-2-yl]methyl}-1H-1,3-benzodiazol-6-yl)acetamide] was 7.24.

Consider `O=C(O)c1ccc2nc(CN3CCC(n4ncc5ccc(Cc6ccc(Cl)cc6F)nc54)CC3)n(C[C@@H]3CCO3)c2n1` [Compound 185a, 2-[(4-{6-[(4-chloro-2-fluorophenyl)methyl]-1H-pyrazolo[3,4-b]pyridin-1-yl}piperidin-1-yl)methyl]-3-{[(2S)-oxetan-2-yl]methyl}-3H-imidazo[4,5-b]pyridine-5-carboxylic acid], for which the pEC50 was 9.33. Take `O=C(O)c1ccc2nc(Cc3ccc(Oc4nc(Cc5ccc(Cl)cc5)ncc4F)cc3F)n(C[C@@H]3CCO3)c2c1` [Compound 191a, 2-{[4-({2-[(4-chlorophenyl)methyl]-5-fluoropyrimidin-4-yl}oxy)-2-fluorophenyl]methyl}-1-{[(2S)-oxetan-2-yl]methyl}-1H-1,3-benzodiazole-6-carboxylic acid]: the negative logarithm of the EC50 (pEC50) is 9.54. The same measure, in the same setting: next, `O=C(O)c1ccc2nc(CC3CCN(C(=O)c4cccc(Cc5ccc(Cl)cc5F)n4)CC3)n(C[C@@H]3CCO3)c2n1` [Compound 106a, (S)-2-((1-(6-(4-Chloro-2-fluorobenzyl)picolinoyl)piperidin-4-yl)methyl)-3-(oxetan-2-ylmethyl)-3H-imidazo[4,5-b]pyridine-5-carboxylic acid]: 6.33.

For the molecule `O=C(O)c1ccc2nc(C[C@H]3CC[C@H](Oc4ccnc(Cc5ccc(Cl)cc5F)n4)CC3)n(C[C@@H]3CCO3)c2n1` [Compound 175b, 3-{[(2S)-oxetan-2-yl]methyl}-2-{[trans-4-({2-[(4-chloro-2-fluorophenyl)methyl]pyrimidin-4-yl}oxy)cyclohexyl]methyl}-3H-imidazo[4,5-b]pyridine-5-carboxylic acid], the negative logarithm of the EC50 (pEC50) is 10.20. Same read-out and setting: next, `O=C(O)c1ccc2nc(CN3CCC(C(F)(F)c4cccc(Cc5ccc(Cl)cc5F)n4)CC3)n(C[C@@H]3CCO3)c2n1` [Compound 173a, 2-{[4-({6-[(4-chloro-2-fluorophenyl)methyl]pyridin-2-yl}difluoromethyl)piperidin-1-yl]methyl}-3-{[(2S)-oxetan-2-yl]methyl}-3H-imidazo[4,5-b]pyridine-5-carboxylic acid]: 8.42. On to `O=C(O)c1ccc2nc(CN3CCC(Oc4cc(Cl)cc(Cc5ccc(Cl)cc5)n4)CC3)n(C[C@@H]3CCO3)c2n1` [Compound 155a, 2-{[4-({4-chloro-6-[(4-chlorophenyl)methyl]pyridin-2-yl}oxy)piperidin-1-yl]methyl}-3-{[(2S)-oxetan-2-yl]methyl}-3H-imidazo[4,5-b]pyridine-5-carboxylic acid], for which the pEC50 is 8.42. Same read-out and setting: next, `Cn1c(C[C@H]2CC[C@H](Oc3ccnc(Cc4ccc(Cl)cc4)n3)CC2)nc2ccc(C(=O)O)nc21` [Compound 180a, 3-methyl-2-{[trans-4-({2-[(4-chlorophenyl)methyl]pyrimidin-4-yl}oxy)cyclohexyl]methyl}-3H-imidazo[4,5-b]pyridine-5-carboxylic acid]: 8.64. On the same count and under the same terms, the value for `O=C(O)c1ccc2nc(CN3CCC(Oc4cccc(Cc5ccc(C6CC6)cc5)n4)CC3)n(C[C@@H]3CCO3)c2n1` [Compound 146a, 2-{[4-({6-[(4-cyclopropylphenyl)methyl]pyridin-2-yl}oxy)piperidin-1-yl]methyl}-3-{[(2S)-oxetan-2-yl]methyl}-3H-imidazo[4,5-b]pyridine-5-carboxylic acid] was 9.21; that for `O=C(O)c1ccc2nc(CN3CCC(Oc4cccc(Cc5cccc(Cl)c5)n4)CC3)n(C[C@@H]3CCO3)c2n1` [Compound 125a, (S)-2-((4-((6-(3-chlorobenzyl)pyridin-2-yl)oxy)piperidin-1-yl)methyl)-3-(oxetan-2-ylmethyl)-3H-imidazo[4,5-b]pyridine-5-carboxylic acid] was 8.85; that for `O=C(O)c1ccc2nc(CN3CCC(Oc4cc(Cc5ccc(Cl)cc5F)ccc4F)CC3)n(C[C@@H]3CCO3)c2n1` [Compound 114a, 2-[(4-{5-[(4-chloro-2-fluorophenyl)methyl]-2-fluorophenoxy}piperidin-1-yl)methyl]-3-{[(2S)-oxetan-2-yl]methyl}-3H-imidazo[4,5-b]pyridine-5-carboxylic acid] was 8.77.

Regarding `O=C(O)c1ccc2nc(CN3CCC(Oc4ccnc(Cc5ccc(Cl)cc5F)n4)C(F)(F)C3)n(C[C@@H]3CCO3)c2n1` (stereo partly drawn) [Compound 168a, 2-{[4-({2-[(4-chloro-2-fluorophenyl)methyl]pyrimidin-4-yl}oxy)-3,3-difluoropiperidin-1-yl]methyl}-3-{[(2S)-oxetan-2-yl]methyl}-3H-imidazo[4,5-b]pyridine-5-carboxylic acid], the negative-log EC50 (pEC50) is 8.92. Still for that read-out and setting: the value for `N#Cc1ccc(Cc2cccc(OC3CCN(Cc4nc5ccc(C(=O)O)nc5n4C[C@@H]4CCO4)CC3)n2)c(F)c1` [Compound 136a, 2-{[4-({6-[(4-cyano-2-fluorophenyl)methyl]pyridin-2-yl}oxy)piperidin-1-yl]methyl}-3-{[(2S)-oxetan-2-yl]methyl}-3H-imidazo[4,5-b]pyridine-5-carboxylic acid] was 9.36; that for `O=C(O)c1ccc2nc(CN3CCC(Oc4nc(Cc5ccc(Cl)cc5F)ccc4Cl)CC3)n(C[C@@H]3CCO3)c2n1` [Compound 137a, 2-{[4-({3-chloro-6-[(4-chloro-2-fluorophenyl)methyl]pyridin-2-yl}oxy)piperidin-1-yl]methyl}-3-{[(2S)-oxetan-2-yl]methyl}-3H-imidazo[4,5-b]pyridine-5-carboxylic acid] was 7.29.

The same assay, now with this note: HEK293/CRE-Luc cell line stably expressing the GLP-1 Receptor; 30 min incubation at 37° C.; read-out: GLP1R cAMP Stimulation DR: pEC50 (converted).
In the case of `O=C(O)c1ccc2nc(CN3CCC(Oc4ccnc(Cc5ccc(C(F)(F)F)cc5F)n4)CC3)n(C[C@@H]3CCO3)c2n1` [Compound 163a, 2-({4-[(2-{[2-fluoro-4-(trifluoromethyl)phenyl]methyl}pyrimidin-4-yl)oxy]piperidin-1-yl}methyl)-3-{[(2S)-oxetan-2-yl]methyl}-3H-imidazo[4,5-b]pyridine-5-carboxylic acid], the EC50 was 0.1 nM.

These data come from patent US20230071840A1, “HETEROCYCLIC GLP-1 AGONISTS” (Gasherbrum Bio, Inc., priority 2020, published 2023).
